This is an account of results in US20130172318A1, “ANTI-INFLAMMATORY AGENTS” (priority 2010, published 2013).

In turn, `O=C(N[C@H]1CCCNC1=O)c1cccc(F)c1` [Example 1, (S)-3-Fluoro-N-(2-oxopiperidin-3-yl)benzamide] gave a melting point of 164 to 166 °C.

Compound `O=C(N[C@H]1CCCNC1=O)c1ccccc1F` [Example 2, (S)-2-Fluoro-N-(2-oxopiperidin-3-yl)benzamide] returned a melting point of 166 to 168 °C.

Take `O=C(N[C@H]1CCCNC1=O)c1ccc(C(F)(F)F)cc1` [Example 4, (S)—N-(2-Oxopiperidin-3-yl)-4-(trifluoromethyl)benzamide]: the melting point fell in the range of 212 to 214 °C.

In the case of `O=C(N[C@H]1CCCNC1=O)c1cccc(C(F)(F)F)c1` [Example 5, (S)—N-(2-Oxopiperidin-3-yl)-3-(trifluoromethyl)benzamide], the melting point lay within 148 to 150 °C.

As to `O=C(N[C@H]1CCCNC1=O)c1ccccc1C(F)(F)F` [Example 6, (S)—N-(2-Oxopiperidin-3-yl)-2-(trifluoromethyl)benzamide], the melting point was 155 to 156 °C.

`O=C(N[C@H]1CCCNC1=O)c1cccc(F)c1F` [Example 7, (S)-2,3-difluoro-N-(2-oxopiperidin-3-yl)benzamide]: the melting point is 160 to 162 °C.

Take `O=C(N[C@H]1CCCNC1=O)c1ccc(F)cc1F` [Example 8, (S)-2,4-difluoro-N-(2-oxopiperidin-3-yl)benzamide]: the melting point was in the range of 140 to 141 °C.

In the case of `O=C(N[C@H]1CCCNC1=O)c1cc(F)ccc1F` [Example 9, (S)-2,5-difluoro-N-(2-oxopiperidin-3-yl)benzamide], the melting point lay within 140 to 142 °C.

Regarding `O=C(N[C@H]1CCCNC1=O)c1c(F)cccc1F` [Example 10, (S)-2,6-difluoro-N-(2-oxopiperidin-3-yl)benzamide], the melting point lay in the range of 190 to 194 °C.

Regarding `O=C(N[C@H]1CCCNC1=O)c1ccc(F)c(F)c1` [Example 11, (S)-3,4-difluoro-N-(2-oxopiperidin-3-yl)benzamide], the melting point lay in the range of 202 to 204 °C.

Compound `O=C(N[C@H]1CCCNC1=O)c1cc(F)cc(F)c1` [Example 12, (S)-3,5-difluoro-N-(2-oxopiperidin-3-yl)benzamide] showed a melting point of 198 to 199 °C.

Consider `CCc1ccc(C(=O)N[C@H]2CCCCNC2=O)cc1` [Example 14, (S)-3-(4′-Ethylbenzoylamino)-azepan-2-one], for which the melting point lay within 218 to 219 °C.

Turning to `CCc1ccc(C(=O)N[C@H]2CCCNC2=O)cc1` [Example 15, (S)-3-(4′-Ethylbenzoylamino)-tetrahydropyridin-2-one], the melting point was in the range of 112 to 113 °C.

The compound `CCCCc1ccc(C(=O)N[C@H]2CCCCNC2=O)cc1` [Example 16, (S)-3-(4′-Butylbenzoylamino)-azepan-2-one] displayed a melting point of 183 to 184 °C.

The compound `CCCCc1ccc(C(=O)N[C@H]2CCCNC2=O)cc1` [Example 17, (S)-3-(4′-Butylbenzoylamino)-tetrahydropyridin-2-one] gave a melting point of 117 to 118 °C.

`CCCCc1ccc(C(=O)N[C@@H]2CCCNC2=O)cc1` [Example 18, (R)-3-(4′-Butylbenzoylamino)-tetrahydropyridin-2-one] came in with a melting point of 116 to 117 °C.

With `CC(C)(C)c1ccc(C(=O)N[C@H]2CCCCNC2=O)cc1` [Example 19, (S)-3-(4′-tert-Butylbenzoylamino)-azepan-2-one], the melting point lay in the range of 204 to 205 °C.

Compound `CC(C)(C)c1ccc(C(=O)N[C@H]2CCCNC2=O)cc1` [Example 20, (S)-3-(4′-tert-Butylbenzoylamino)-tetrahydropyridin-2-one] showed a melting point of 195 to 196 °C.

In the case of `CC(C)(C)c1ccc(C(=O)N[C@@H]2CCCNC2=O)cc1` [Example 21, (R)-3-(4′-tert-Butylbenzoylamino)-tetrahydropyridin-2-one], the melting point is 193 to 194 °C.

For `CCCCCCc1ccc(C(=O)N[C@H]2CCCCNC2=O)cc1` [Example 22, (S)-3-(4′-Hexylbenzoylamino)-azepan-2-one], the melting point fell in the range of 167 to 168 °C.

One may read the melting point as the temperature of the solid-liquid transition.
